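Growth conditions: 96-well plates. Treatment: test compound, 48 hours, 5 concentrations. Analysis: linear interpolation between bracketing concentrations; unreached endpoints set to highest concentration. GI50 = concentration required for 50% inhibition of growth.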 Calls of active or inactive are those of the source. Cut-off read from the data, not from the text of the source: active = GI50 up to about 1.1 µM and inactive = higher.

Experiment in all cases: NCI tumour cell line growth inhibition, 48 h
The test system of assay [1] is A549.
Assay [2] relates to HL-60.
For assay [3], the system named is M19-MEL.
Assay [4] has as its system SK-MEL-28.
Assay [5] has as its system SF-268.
The subject of assay [6] is HCT-15.
Assay [7] relates to SK-MEL-2.
For assay [8], the system named is M14.
Assay [9] deals with TK-10.
For assay [10], the system named is NCI-H226.
Assay [11] has as its system SK-MEL-5.
In assay [12] the test system is OVCAR-3.
The test system of assay [13] is MOLT-4.
Assay [14] concerns CCRF-CEM.
Assay [15] deals with SNB-19.
In assay [16] the test system is NCI-H23.
For assay [17], the system named is SW-620.
The subject of assay [18] is MDA-N.
In assay [19] the test system is PC-3.
Assay [20] concerns NCI/ADR-RES.

Consider `N#C/C(=C\c1ccccc1Br)C(=O)c1ccccc1`, for which the GI50 is > 40.7 µM (inactive) in [1]; 1.28 µM (inactive) in [2]; 33.4 µM (inactive) in [3]; > 42.3 µM (inactive) in assay [4]; > 46 µM (inactive) in [5]; 8.34 µM in assay [6]. The GI50 is > 65.5 µM (inactive) in assay [7]; > 34.8 µM (inactive) in assay [8]; > 63.4 µM (inactive) in [9]; > 54.8 µM (inactive) in [10]; 16.5 µM (inactive) in [11]; > 41.1 µM (inactive) in assay [12]. For the same compound, the GI50 was 12.2 µM (inactive) in [13]; 6.95 µM (inactive) in assay [14]; 20.4 µM (inactive) in assay [15]; > 40.4 µM (inactive) in assay [16]; 2.04 µM (inactive) in assay [17].

Turning to `COC1C(OC(=O)/C=C/C=C/C=C/C=C/C(=O)O)CCC2(CO2)C1C1(C)OC1CC=C(C)C` (configuration not stated), the GI50 in assay [1] is 18.5 µM (inactive); in [2] it was 16.4 µM (inactive); in [3] it was 18.7 µM (inactive); in assay [4], 18.2 µM (inactive); in [5] it was 34.5 µM (inactive); in [18], 20.5 µM (inactive). The GI50 in assay [6] was 24.2 µM; in assay [7] it was 5.01 µM (inactive); in assay [8], 13.6 µM (inactive); in assay [19], 15.2 µM (inactive); in assay [9], 57.9 µM (inactive); in assay [20] it was > 63.8 µM (inactive). For the same compound, the GI50 in assay [10] was 42.8 µM (inactive); in assay [11], 18.5 µM (inactive); in assay [12], 29.2 µM (inactive); in [13] it was 25.4 µM (inactive); in assay [14] it was 21.4 µM (inactive); in assay [15], > 56.1 µM (inactive). Also, the GI50 was 25 µM (inactive) in assay [16] and 21 µM (inactive) in [17].

On to `CC1=C(N2CC2)C(=O)C(C)=C(N2CC2)C1=O`, for which the GI50 is 0.112 µM (active) in assay [1]; 0.0206 µM (active) in assay [2]; 0.229 µM (active) in [3]; 0.356 µM (active) in [4]; 0.0834 µM (active) in assay [5]; 0.0998 µM (active) in [18]. Further, the GI50 in assay [6] is 0.196 µM; in assay [7], 0.306 µM (active); in assay [8] it was 0.189 µM (active); in assay [19], 0.282 µM (active); in [9], 0.289 µM (active); in assay [20] it was 0.0221 µM (active). Further, the GI50 is 0.309 µM (active) in assay [10]; 0.155 µM (active) in assay [11]; 0.249 µM (active) in assay [12]; 0.0753 µM (active) in [13]; 0.0434 µM (active) in assay [14]; 0.348 µM (active) in assay [15]. Moreover, the results for the GI50 in [16] and in assay [17] were 0.0412 µM (active) and 0.143 µM (active), respectively.

For the origin of these results see ChEMBL document CHEMBL1201862, “PubChem BioAssay data set” (2004).
